Results reported in patent US12653809B2, “Urea, amide, and substituted heteroaryl compounds for CBL-B inhibition” (Nurix Therapeutics, Inc., priority 2019, dated 2026).
Where two headings read alike, the source gives them in different places.

Biological target: T1, Cbl-b (truncated variant, UniProt number Q13191) (Homo sapiens, UniProt Q13191)
T1 construct: made in house
Assay: Cbl-b activity assay (TR-FRET, interaction of Cbl-b with UbcH5B-Ub)
Assay type: biochemical
Source text: As described in Biological Example 1A, a Cbl-b activity assay (Cbl-b inhibition assay) used to measure the IC50 values for Cbl-b inhibition uses a mixture comprising candidate compound, Cbl-b (truncated, with an Avitag, and biotinylated), a fluorescently-labeled E2 enzyme UbcH5B labelled with ubiquitin conjugated to BODIPY-fluorescein (UbcH5B-Ub), streptavidin-terbium, and assay buffer. In one embodiment, the Cbl-b activity assay (Cbl-b inhibition assay) used to measure IC50 for inhibition of Cbl-b uses the conditions described in Biological Example 1A with 12 nM Cbl-b. […] In another embodiment, the Cbl-b activity assay (Cbl-b inhibition assay) used to measure IC50 for inhibition of Cbl-b uses the conditions described in Biological Example 1B, with candidate compound, 0.125 nM Cbl-b (truncated, with an avitag, and biotinylated), fluorescently labelled inhibitor probe, and assay buffer. Displacement of the inhibitor probe indicates Cbl-b activity.
Candidate compounds isolated from screening assays were evaluated for their ability to bind and inhibit Cbl-b, an E3 ubiquitin-protein ligase.
The ability of candidate compounds to inhibit Cbl-b activity was measured by monitoring the interaction of Cbl-b with UbcH5B-Ub in the presence of the candidate compound. A truncated variant of Cbl-b (UniProt number Q13191; SEQ ID NO:1) containing an Avitag at its N-terminus was co-expressed with BirA biotin ligase and purified using a standard protocol (see Dou et al., Nature Structural and Molecular Biology 8: 982-987, 2013; Avidity LLC).
Fluorescently labeled UbcH5B-Ub was prepared by conjugating ubiquitin (Ub), labeled at its N-terminus with Bodipy-Fluorescein, to UbcH5B, an E2 enzyme, harboring a cysteine to lysine mutation at position 85. This mutation is similar to a mutation that was previously reported (see Dou et al., Nature Structural and Molecular Biology 8: 982-987, 2013). Cbl-b activity assays were performed in a 384-well plate at room temperature in a 10 μL reaction volume by pre-incubating 12 nM Cbl-b (final concentration) in an assay buffer containing 50 mM HEPES pH 7.0, 100 mM NaCl, 0.01% Triton X-100, 0.01% BSA, and 1 mM DTT in the presence of a candidate compound in 1% DMSO (final concentration, High Conditions) for one hour. After incubation in the presence of the candidate compound, the plate was incubated for an additional 1.5 hours in the presence of 60 nM Src kinase with 1 mM ATP and 5 mM MgCl2 (final concentrations). Alternatively, compounds were tested as described above with assay buffer containing 50 mM NaCl instead of 100 mM NaCl and 30 nM Src kinase instead of 60 nM Src kinase (Low Conditions). Src kinase was prepared as previously described (see Kobashigawa et al., Proc Natl Acad Sci USA, 108: 20579-20584, 2011). […] The plate was incubated for one hour. Following the one hour incubation, the plates were read for TR-FRET signal at 520/620 nm using Envision plate reader (Perkin Elmer). The presence of a FRET signal that indicated Cbl-b was not inhibited by the compound candidate. The absence of a FRET signal indicated Cbl-b was inhibited by the compound candidate and was therefore a Cbl-b inhibitor.
The resulting data for the Cbl-b activity assays were analyzed using standard methods to report the IC50 values of the tested compounds (Tables 3-4). The resulting data for the Cbl-b binding assay was solvent corrected and double-referenced prior to analysis. All data were globally fit to a steady-state affinity and kinetic binding model where applicable. Compounds were ranked into bins A through D as follows for IC50: A indicates <0.1 μM, B indicates 0.1 μM≤IC50<1 μM, C indicates 1 μM≤IC50<5 μM, and D indicates 5 μM≤IC50.

[1] = Biological Example 1A, low or high conditions not stated, read-out: IC50 values in the Cbl-b inhibition assay of Biological Example 1A
[2] = high conditions: 100 mM NaCl, 60 nM Src kinase, 12 nM Cbl-b, read-out: Cbl-b activity IC50

T1 sequence (Q13191 36-427): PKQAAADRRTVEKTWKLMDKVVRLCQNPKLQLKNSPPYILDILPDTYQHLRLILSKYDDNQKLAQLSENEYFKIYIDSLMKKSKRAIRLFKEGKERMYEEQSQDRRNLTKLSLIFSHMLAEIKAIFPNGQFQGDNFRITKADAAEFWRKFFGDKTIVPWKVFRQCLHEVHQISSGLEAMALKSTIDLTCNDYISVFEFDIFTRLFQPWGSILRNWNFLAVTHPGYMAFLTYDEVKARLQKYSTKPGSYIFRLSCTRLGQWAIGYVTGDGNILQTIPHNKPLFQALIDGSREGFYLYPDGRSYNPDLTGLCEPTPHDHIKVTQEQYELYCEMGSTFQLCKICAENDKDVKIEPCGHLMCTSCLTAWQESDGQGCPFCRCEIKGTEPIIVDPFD

Row | Structure (SMILES) | IC50 [1] [nM] | IC50 [2] [nM] | IC50 (low conditions: 50 mM NaCl, 30 nM Src kinase, 12 nM Cbl-b, read-out: Cbl-b activity IC50) [nM]
1 | C[C@H](Sc1nncn1C)c1cccc(NC(=O)NC2CCCN(C)C2)c1 (stereo partly drawn) [Example 159, 1-(3-((S)-1-((4-methyl-4H-1,2,4-triazol-3-yl)thio)ethyl)phenyl)-3-(1-methylpiperidin-3-yl)urea] | – | ≥ 5000 | –
2 | Cn1cnnc1C(F)(F)[C@](C)(F)c1cccc(NC(=O)N2CCOc3cccnc32)c1 [Example 24, (R)—N-(3-(1,1,2-trifluoro-1-(4-methyl-4H-1,2,4-triazol-3-yl)propan-2-yl)phenyl)-2,3-dihydro-4H-pyrido[3,2-b][1,4]oxazine-4-carboxamide] | – | 100 to 1000 | –
3 | C[C@H](Sc1nncn1C)c1cccc(NC(=O)N2CC(C(=O)N3CCC(O)C3)C2)c1 (stereo partly drawn) [Example 153, 3-(3-hydroxypyrrolidine-1-carbonyl)-N-(3-((S)-1-((4-methyl-4H-1,2,4-triazol-3-yl)thio)ethyl)phenyl)azetidine-1-carboxamide] | – | ≥ 5000 | –
4 | C[C@H](Cc1nncn1C)c1cccc(-c2n[nH]c3c(N4CCC(O)CC4)cc(C(F)(F)F)nc23)c1 [Example 109, (R)-1-(3-(3-(1-(4-methyl-4H-1,2,4-triazol-3-yl)propan-2-yl)phenyl)-5-(trifluoromethyl)-1H-pyrazolo[4,3-b]pyridin-7-yl)piperidin-4-ol] | – | 100 to 1000 | –
5 | CN1CC2(C1)CN(C(=O)Nc1cccc(C3(Cc4nncn4C)COC3)c1)c1ncccc1O2 [Example 29, 1-methyl-N-(3-(3-((4-methyl-4H-1,2,4-triazol-3-yl)methyl)oxetan-3-yl)phenyl)spiro[azetidine-3,2′-pyrido[3,2-b][1,4]oxazine]-4′(3′H)-carboxamide] | – | < 100 | –
6 | C[C@H](Cc1nncn1C)c1cccc(NC(=O)N2CC(C)(C)c3cccnc32)c1 [Example 22, (R)-3,3-dimethyl-N-(3-(1-(4-methyl-4H-1,2,4-triazol-3-yl)propan-2-yl)phenyl)-2,3-dihydro-1H-pyrrolo[2,3-b]pyridine-1-carboxamide] | – | 100 to 1000 | –
7 | C[C@H](Sc1nncn1C)c1cccc(NC(=O)N2CCO[C@@H]([C@H]3CCCO3)C2)c1 [Example 136, (R)—N-(3-((S)-1-((4-methyl-4H-1,2,4-triazol-3-yl)thio)ethyl)phenyl)-2-((R)-tetrahydrofuran-2-yl)morpholine-4-carboxamide] | – | ≥ 5000 | –
8 | C[C@H](Sc1nncn1C)c1cccc(NC(=O)N2CCOC3(CC3)C2)c1 [Example 48, (S)—N-(3-(1-((4-methyl-4H-1,2,4-triazol-3-yl)thio)ethyl)phenyl)-4-oxa-7-azaspiro[2.5]octane-7-carboxamide] | – | ≥ 5000 | –
9 | CNC(=O)C1(C)CCN(C(=O)Nc2cccc([C@H](C)Cc3nncn3C)c2)C1 (stereo partly drawn) [Example 12, N^3,3-dimethyl-N′-(3-((R)-1-(4-methyl-4H-1,2,4-triazol-3-yl)propan-2-yl)phenyl)pyrrolidine-1,3-dicarboxamide] | ≥ 5000 | ≥ 5000 | –
10 | Cn1cnnc1[C@@H]1C[C@@H]1c1cccc(NC(=O)N2CCOc3cccnc32)c1 [Example 25, N-(3-((1S,2R)-2-(4-methyl-4H-1,2,4-triazol-3-yl)cyclopropyl)phenyl)-2,3-dihydro-4H-pyrido[3,2-b][1,4]oxazine-4-carboxamide] | – | 100 to 1000 | –
11 | CC1CN(C(=O)Nc2cccc([C@H](C)Sc3nncn3C)c2)CC(=O)N1C (stereo partly drawn) [Example 123, 3,4-dimethyl-N-(3-((S)-1-((4-methyl-4H-1,2,4-triazol-3-yl)thio)ethyl)phenyl)-5-oxopiperazine-1-carboxamide] | – | ≥ 5000 | –
12 | CNC(=O)C1(C(F)(F)F)CCN(C(=O)Nc2cccc([C@H](C)Sc3nncn3C)c2)C1 (stereo partly drawn) [Example 50, N^3-methyl-N^1-(3-((S)-1-((4-methyl-4H-1,2,4-triazol-3-yl)thio)ethyl)phenyl)-3-(trifluoromethyl)pyrrolidine-1,3-dicarboxamide] | 1000 to 5000 | 1000 to 5000 | –
13 | C[C@H](Cc1nncn1C)c1cccc(-c2n[nH]c3ccc(C(F)(F)F)nc23)c1 [Example 116, (R)-3-(3-(1-(4-methyl-4H-1,2,4-triazol-3-yl)propan-2-yl)phenyl)-5-(trifluoromethyl)-1H-pyrazolo[4,3-b]pyridine] | 100 to 1000 | 100 to 1000 | –

Results, then the compound that gave them:

Row | IC50 [1] [nM] | IC50 [2] [nM] | IC50 (low conditions: 50 mM NaCl, 30 nM Src kinase, 12 nM Cbl-b, read-out: Cbl-b activity IC50) [nM] | Structure (SMILES)
14 | 1000 to 5000 | 1000 to 5000 | – | C[C@H](Sc1nncn1C)c1cccc(-c2cc(-c3ccccc3)no2)c1 [Example 67, (S)-5-(3-(1-((4-methyl-4H-1,2,4-triazol-3-yl)thio)ethyl)phenyl)-3-phenylisoxazole]
15 | 1000 to 5000 | 1000 to 5000 | – | CNC(=O)c1ccc(-c2cnn(-c3cccc([C@H](C)Sc4nncn4C)c3)n2)cc1 [Example 82, (S)—N-methyl-4-(2-(3-(1-(4-methyl-4H-1,2,4-triazol-3-ylthio)ethyl)phenyl)-2H-1,2,3-triazol-4-yl)benzamide]
16 | 1000 to 5000 | 1000 to 5000 | – | Cc1cnnc(NC(=O)Nc2cccc([C@H](C)Sc3nncn3C)c2)c1 [Example 39, (S)-1-(3-(1-((4-methyl-4H-1,2,4-triazol-3-yl)thio)ethyl)phenyl)-3-(5-methylpyridazin-3-yl)urea]
17 | 1000 to 5000 | 1000 to 5000 | – | C[C@H](Sc1nncn1C)c1cccc(-n2ncc(-c3cccc(C#N)c3)n2)c1 [Example 97, (S)-3-(2-(3-(1-(4-methyl-4H-1,2,4-triazol-3-ylthio)ethyl)phenyl)-2H-1,2,3-triazol-4-yl)benzonitrile]
18 | ≥ 5000 | ≥ 5000 | – | C[C@H](Sc1nncn1C)c1cccc(-n2cc(-c3ccc(CO)cc3)nn2)c1 [Example 85, (S)-(4-(1-(3-(1-(4-methyl-4H-1,2,4-triazol-3-ylthio)ethyl)phenyl)-1H-1,2,3-triazol-4-yl)phenyl)methanol]
19 | ≥ 5000 | ≥ 5000 | – | C[C@@H](Sc1nncn1C)c1cccc(-c2cc(-c3ccccc3)n[nH]2)c1 [Example 103, (R)-4-methyl-3-((1-(3-(3-phenyl-1H-pyrazol-5-yl)phenyl)ethyl)thio)-4H-1,2,4-triazole]
20 | 1000 to 5000 | 1000 to 5000 | – | C[C@H](Sc1nncn1C)c1cccc(-c2cc(-c3ccc(CO)cc3)no2)c1 [Example 64, (S)-(4-(5-(3-(1-(4-methyl-4H-1,2,4-triazol-3-ylthio)ethyl)phenyl)isoxazol-3-yl)phenyl)methanol]
21 | 100 to 1000 | – | 100 to 1000 | C[C@H](Sc1nncn1C)c1cccc(NC(=O)Nc2ccccn2)c1 [Example 2, (S)-1-(3-(1-((4-methyl-4H-1,2,4-triazol-3-yl)thio)ethyl)phenyl)-3-(pyridin-2-yl)urea]
22 | – | ≥ 5000 | – | C[C@H](Sc1nncn1C)c1cccc(NC(=O)N2CCC2)c1 [Example 164, (S)—N-(3-(1-(4-methyl-4H-1,2,4-triazol-3-ylthio)ethyl)phenyl)azetidine-1-carboxamide]
23 | – | ≥ 5000 | – | CNS(=O)(=O)c1ccc(NC(=O)Nc2cccc([C@H](C)Sc3nncn3C)c2)cc1 [Example 163, (S)—N-methyl-4-(3-(3-(1-((4-methyl-4H-1,2,4-triazol-3-yl)thio)ethyl)phenyl)ureido)benzenesulfonamide]
24 | – | 1000 to 5000 | – | COc1cccc(-c2cc(-c3cccc([C@H](C)Sc4nncn4C)c3)on2)c1 [Example 60, (S)-3-(3-methoxyphenyl)-5-(3-(1-((4-methyl-4H-1,2,4-triazol-3-yl)thio)ethyl)phenyl)isoxazole]
